Results taken from PubChem BioAssay (NCI).
Values joined by “and” are separate entries in the source; they are usually repeats but may differ in a detail not shown here. Equal values may be shown once.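 These data come from cells grown in 96-well plates and exposed to compound for 48 hours at five concentrations. GI50: concentration for 50% inhibition of growth. TGI denotes the concentration required for complete inhibition of growth.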

Columns and labels:
Test in all cases: NCI-60 cell line screen, 48 h
[1] = test system: A549 NSCLC
[2] = test system: COLO 205 colon
[3] = test system: DU-145 prostate
[4] = test system: K-562 leukemia
[5] = test system: MDA-MB-435
[6] = test system: NCI/ADR-RES ovarian
[7] = test system: OVCAR-3 ovarian
[8] = test system: PC-3 prostate
[9] = test system: RPMI-8226 leukemia
[10] = test system: T-47D breast

SMILES | GI50 [1] | TGI [1] | GI50 [2] | TGI [2] | GI50 [3] | TGI [3] [µM] | GI50 [4] | TGI [4] | GI50 [5] | TGI [5] | GI50 [6] | TGI [6] | GI50 [7] | TGI [7] [µM] | GI50 [8] | TGI [8] [µM] | GI50 [9] | TGI [9] | GI50 [10] [nM] | TGI [10]
COc1ccc2c(c1)OC(N)=C(C#N)C2c1ccc(F)c(F)c1 (centres undefined) | 706 nM | > 100 µM | 437 nM | 5.2 µM | 522 nM | > 46.5 | 257 nM | > 100 µM | 133 nM | 664 nM | 351 nM | 10.7 µM | 0.324 µM | 3.4 | 569 nM | > 100 | 455 nM | 31.7 µM | 334 | > 55.3 µM
CN1CCN(C(=O)OCc2nc3c(N4CCOCC4)nc(-c4ccccc4)nc3n2C)CC1 | 1680 nM | 4.13 µM | 1360 nM | 3.75 µM | 1190 nM | 2.48 | 512 nM | 7.41 µM | 1060 nM | 2390 nM | 1820 nM | 6.03 µM | 0.295 µM | 1.16 | 1090 nM | 2.49 | 335 nM | 1.87 µM | 1530 | 4.51 µM
Nc1nc(N)c2cc(Sc3ccc(Cl)cc3)ccc2n1 | 254 nM | 12.9 µM | 1280 nM | 2.83 µM | 1900 nM | 14.6 | 286 nM | 1.86 µM | 403 nM | 1910 nM | 793 nM | 16.1 µM | 3.5 µM | 12.6 | 592 nM | 13.8 | 1950 nM | 4.99 µM | 1610 | 3.33 µM
COc1cccc(Nc2ncnn3ccc(CN4CC[C@@H](N)[C@H](O)C4)c23)c1 | 2220 nM and 928 nM | 23.6 µM and > 7.05 µM | 3730 nM and 3130 nM | 18.2 µM and > 6.18 µM | 1590 nM and 927 nM | > 100 | 285 nM and 168 nM | 10.2 µM and > 10 µM | 14800 nM and > 4710 nM | 29900 nM and > 10000 nM | 4320 nM and 2930 nM | 39.7 µM and > 10 µM | 3.92 µM and 1.63 µM | > 60.8 | 15200 nM and > 2390 nM | > 100 | 20900 nM and > 5390 nM | 68 µM and > 10 µM | – | 29.2 µM and > 6.86 µM
NS(=O)(=O)c1ccc(N=Nc2c(O)[nH]c3cccc(CCc4ccncc4)c23)cc1 | > 25000 nM | > 25 µM | > 25000 nM | > 25 µM | > 25000 nM | > 25 | > 25000 nM | > 25 µM | > 25000 nM | > 25000 nM | > 25000 nM | > 25 µM | > 25 µM | > 25 | > 25000 nM | > 25 | > 25000 nM | > 25 µM | > 25000 | > 25 µM
CCN1C2=C(SC(=S)C1=C1SC(C(=O)c3ccccc3)=C(C(=O)c3ccccc3)S1)SC(=Nc1ccccc1)C2=O | > 100000 nM | > 100 µM | > 100000 nM | > 100 µM | 24600 nM | > 100 | 4910 nM | > 100 µM | 9410 nM | > 100000 nM | > 73900 nM | > 100 µM | 30.9 µM | > 100 | 17600 nM | > 100 | 2130 nM | > 100 µM | 19600 | > 100 µM
CC(C)c1ccc2c(c1)CCC1C(C)(CN)CCCC21C (centres undefined) | – | 3.37 µM | – | 1.43 µM | – | 3.33 | – | 3.01 µM | – | 2890 nM | – | 3.61 µM | – | 3.26 | – | 3.12 | – | 4.3 µM | – | 3.3 µM
